Target: Human immunodeficiency virus type 1 integrase (Human immunodeficiency virus 1) (UniProt Q7ZJM1)
Assay: Inhibition of HIV1 integrase-mediated viral replication in human MT4 cells after 72 hrs in presence of 10% normal human serum
Assay type: cell-based

Human immunodeficiency virus type 1 integrase (Human immunodeficiency virus 1), sequence (Q7ZJM1 as listed by the source): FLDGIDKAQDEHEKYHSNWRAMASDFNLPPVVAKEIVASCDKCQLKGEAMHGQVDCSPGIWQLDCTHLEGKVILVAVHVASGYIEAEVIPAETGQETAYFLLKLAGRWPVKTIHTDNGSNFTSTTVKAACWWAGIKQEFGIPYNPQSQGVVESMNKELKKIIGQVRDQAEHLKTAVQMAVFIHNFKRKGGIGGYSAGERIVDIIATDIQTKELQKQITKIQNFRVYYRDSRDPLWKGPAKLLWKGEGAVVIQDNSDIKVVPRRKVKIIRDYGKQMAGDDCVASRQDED

| Compound | IC95 |
| --- | --- |
| CC[C@H]1COC[C@@H]2c3nc(c(O)c(=O)n31)C(=O)NCc1ccc(F)cc1OCCCCC(=O)N2C | 9 nM |
| CN1CCCc2cc(F)ccc2CNC(=O)c2nc3n(c(=O)c2O)CCCCC3N(C)C(=O)C1=O (stereo not drawn) | 2260 nM |
| CC[C@H]1COCC2c3nc(c(O)c(=O)n31)C(=O)NCc1cc(C)c(F)cc1OCC/C=C/C(=O)N2C (stereo partly drawn) | 6 nM |

Source: ChEMBL document CHEMBL3108737, “HIV Integrase Inhibitors for Treatment of HIV Infections and AIDS” (ACS Med Chem Lett, 2014)
